Reference: publication PMC9510668 (Frontiers in Pharmacology, 2022)
In brackets after ≈: the same amount, converted by molar mass. Read-outs that look alike come from different tables or passages of the source.

Legend:
[1] = Equilibrium solubility in pH buffers and biorelevant media; assay type: physicochemical
Experimental: After incubation of 2 h, 1 ml aliquot of each sample was withdrawn from the tube. The samples were filtered using a 0.22 μm filter, the first 0.8 ml was discarded, and the remaining 0.2 ml was analyzed by the HPLC. The specific experiments containing different conditions are as follows: • i) Solubility testing in simulated fasted and fed media
Specifically, solubility media were prepared using different phosphate buffers. Media pH was adjusted to the required value (Table 1, target value) using KOH or H3PO4, which were equal to the pH value of gastrointestinal tract compartment in a fasted and fed state in humans, respectively. • ii) Biorelevant solubility

[2] = Physicochemical parameters (literature / model input); settings: mean value of literature values, used in the model
BCRP1 = BCRP1 efflux transport; assay type: in vitro ADME; settings: calculated from literature data, PAZ 5 μM, 60-120 min; ref Minocha et al., 2012
[3] = cited from earlier work
OCT1 = test system: OCT1; design: method as in Ellawatty et al., 2018; settings: ref Ellawatty et al., 2018; cited from earlier work
MATE1 = test system: MATE1; design: method as in Sauzay et al., 2016; settings: ref Sauzay et al., 2016; cited from earlier work
[4] = cited from earlier work; remark: listed apart in the source
CYP3A4 = settings: ref Food and Drug Administration, 2009; Yamada et al., 2020; cited from earlier work
[5] = 50 mg OD for 21 consecutive days, Day 1, ref Hurwitz et al., 2009
[6] = 50 mg OD for 21 consecutive days, Day 22, ref Hurwitz et al., 2009
[7] = 100 mg OD for 21 consecutive days, Day 1, ref Hurwitz et al., 2009
[8] = 100 mg OD for 21 consecutive days, Day 22, ref Hurwitz et al., 2009
[9] = 200 mg OD for 21 consecutive days, Day 1, ref Hurwitz et al., 2009
[10] = 200 mg OD for 21 consecutive days, Day 22, ref Hurwitz et al., 2009
[11] = 300 mg twice daily for 21 consecutive days, Day 1, ref Hurwitz et al., 2009
[12] = 300 mg twice daily for 21 consecutive days, Day 22, ref Hurwitz et al., 2009
[13] = 400 mg OD for 21 consecutive days, Day 1, ref Hurwitz et al., 2009
[14] = 400 mg OD for 21 consecutive days, Day 22, ref Hurwitz et al., 2009
[15] = 400 mg oral suspension, ref Heath et al., 2012
[16] = 400 mg tablet, arithmetic mean (range), ref Deng et al., 2013
[17] = 400 mg twice daily for 21 consecutive days, Day 1, ref Hurwitz et al., 2009
[18] = 400 mg twice daily for 21 consecutive days, Day 22, ref Hurwitz et al., 2009
[19] = 400 mg whole tablet, ref Heath et al., 2012
[20] = 600 mg OD for 21 consecutive days, Day 1, ref Hurwitz et al., 2009
[21] = 600 mg OD for 21 consecutive days, Day 22, ref Hurwitz et al., 2009
[22] = 800 mg OD for 21 consecutive days, Day 1, ref Hurwitz et al., 2009
[23] = 800 mg OD for 21 consecutive days, Day 22, ref Hurwitz et al., 2009
[24] = 1000 mg OD for 21 consecutive days, Day 1, ref Hurwitz et al., 2009
[25] = 1000 mg OD for 21 consecutive days, Day 22, ref Hurwitz et al., 2009
[26] = 1400 mg OD for 21 consecutive days, Day 1, ref Hurwitz et al., 2009
[27] = 1400 mg OD for 21 consecutive days, Day 22, ref Hurwitz et al., 2009
[28] = 2000 mg OD for 21 consecutive days, Day 1, ref Hurwitz et al., 2009
[29] = 2000 mg OD for 21 consecutive days, Day 22, ref Hurwitz et al., 2009
[30] = ref Food and Drug Administration, 2009

SMILES: Cc1ccc(Nc2nccc(N(C)c3ccc4c(C)n(C)nc4c3)n2)cc1S(N)(=O)=O [PAZ, pazopanib]
- solubility at 2 h ([1]; 37 °C, pH 1.3, fassgf or other biorelevant, thermodynamic from solid, FaSSGF-PH1.3, read-out: Solubility (mean ± SD) at fasted state): 436.1 ± 1 µg/mL (≈ 997 µM)
- solubility at 2 h ([1]; 37 °C, pH 4.5, fassgf or other biorelevant, thermodynamic from solid, FEDGAS-PH4.5, read-out: Solubility (mean ± SD) at fed state): 147 ± 1.9 µg/mL (≈ 336 µM)
- solubility at 2 h ([1]; 37 °C, pH 5.8, thermodynamic from solid, FeSSIF-V2-PH5.8, read-out: Solubility (mean ± SD) at fed state): 6.5 ± 1.3 µg/mL (≈ 14.9 µM)
- solubility at 2 h ([1]; FEGGAS medium, 37 °C, fassgf or other biorelevant, thermodynamic from solid, fed state, used for food simulation, read-out: Mean value of the three solubility in the FEGGAS medium): 167 µg/mL (≈ 381 µM)
- Solubility (mean ± SD) at fed state ([1]; PH7.0): N (Not detected (below the detection limit))
- Solubility (mean ± SD) at fed state ([1]; PH7.5): N (Not detected (below the detection limit))
- solubility at 2 h ([1]; pH 3, FEDGAS-PH3.0, read-out: Solubility (mean ± SD) at fed state): 322.7 ± 2.6 µg/mL (≈ 738 µM)
- solubility at 2 h ([1]; pH 4.78, FaSSGF-PH4.78 (elevated gastric pH after esomeprazole), read-out: Solubility (mean ± SD) at fasted state): 46.1 ± 3.4 µg/mL (≈ 105 µM)
- solubility at 2 h ([1]; pH 4.9, FEDGAS-PH4.9, read-out: Solubility (mean ± SD) at fed state): 40 ± 0.7 µg/mL (≈ 91.4 µM)
- solubility at 2 h ([1]; pH 6.5, FaSSIF-V2-PH6.5, read-out: Solubility (mean ± SD) at fasted state): 0.63 ± 0.18 µg/mL (≈ 1.44 µM)
- Solubility ([1]; pH ≥ 7.0): cannot even be detected
- solubility at 2 h ([1]; phosphate buffer, 37 °C, pH 3, aqueous buffer, thermodynamic from solid, PH3.0, read-out: Solubility (mean ± SD) at fasted state): 391 ± 4.6 µg/mL (≈ 895 µM)
- solubility at 2 h ([1]; phosphate buffer, 37 °C, pH 4.5, aqueous buffer, thermodynamic from solid, PH4.5, read-out: Solubility (mean ± SD) at fasted state): 68.3 ± 3.3 µg/mL (≈ 156 µM)
- solubility at 2 h ([1]; phosphate buffer, 37 °C, pH 5, aqueous buffer, thermodynamic from solid, PH5.0, read-out: Solubility (mean ± SD) at fasted state): 24.2 ± 2.3 µg/mL (≈ 55.3 µM)
- solubility at 2 h ([1]; phosphate buffer, 37 °C, pH 6, aqueous buffer, thermodynamic from solid, PH6.0, read-out: Solubility (mean ± SD) at fasted state): 7.6 ± 0.6 µg/mL (≈ 17.4 µM)
- solubility at 2 h ([1]; phosphate buffer, 37 °C, pH 7, aqueous buffer, thermodynamic from solid, PH7.0, read-out: Solubility (mean ± SD) at fasted state): < 0.27 µg/mL
- solubility at 2 h ([1]; phosphate buffer, 37 °C, pH 7.5, aqueous buffer, thermodynamic from solid, PH7.5, read-out: Solubility (mean ± SD) at fasted state): < 0.27 µg/mL
- solubility at 2 h ([1]; phosphate buffer, pH 2, PH2.0, read-out: Solubility (mean ± SD) at fasted state): 263.9 ± 1.1 µg/mL (≈ 603 µM)
- LogP [2]: 3.49
- BCRP1 Vmax (BCRP1): 2.5 pmol/min
- AUC0-24, Observation [3, 5]: 51.8 µg·h/mL
- Cmax, Observation [3, 5]: 3.3 µg/mL
- Ctrough, Observation [3, 5]: 1500 ng/mL
- Tmax, Observation [3, 5]: 3.0 h
- AUC504-528, Observation [3, 6]: 157.7 µg·h/mL
- Cmax, Observation [3, 6]: 8.4 µg/mL
- Ctrough, Observation [3, 6]: 5100 ng/mL
- Tmax, Observation [3, 6]: 3.0 h
- AUC0-24, Observation [3, 7]: 96.9 µg·h/mL
- Cmax, Observation [3, 7]: 6.5 µg/mL
- Ctrough, Observation [3, 7]: 2800 ng/mL
- Tmax, Observation [3, 7]: 4.0 h
- AUC504-528, Observation [3, 8]: 160.7 µg·h/mL
- Cmax, Observation [3, 8]: 11.0 µg/mL
- Ctrough, Observation [3, 8]: 4900 ng/mL
- Tmax, Observation [3, 8]: 8.0 h
- AUC0-24, Observation [3, 9]: 104.5 µg·h/mL
- Cmax, Observation [3, 9]: 7.5 µg/mL
- Ctrough, Observation [3, 9]: 2900 ng/mL
- Tmax, Observation [3, 9]: 3.0 h
- AUC504-528, Observation [3, 10]: 384.8 µg·h/mL
- Cmax, Observation [3, 10]: 23.7 µg/mL
- Ctrough, Observation [3, 10]: 12400 ng/mL
- Tmax, Observation [3, 10]: 2.0 h
- AUC0-24, Observation [3, 11]: 120.1 µg·h/mL
- Cmax, Observation [3, 11]: 8.4 µg/mL
- Ctrough, Observation [3, 11]: 4100 ng/mL
- Tmax, Observation [3, 11]: 4.0 h
- Cmax, Observation [3, 12]: 36.7 µg/mL
- Ctrough, Observation [3, 12]: 29500 ng/mL
- Tmax, Observation [3, 12]: 4.0 h
- AUC0-24, Observation [3, 13]: 142.8 µg·h/mL
- Cmax, Observation [3, 13]: 10.3 µg/mL
- Ctrough, Observation [3, 13]: 3900 ng/mL
- Tmax, Observation [3, 13]: 4.0 h
- AUC504-528, Observation [3, 14]: 447.1 µg·h/mL
- Cmax, Observation [3, 14]: 21.8 µg/mL
- Ctrough, Observation [3, 14]: 10400 ng/mL
- Tmax, Observation [3, 14]: 3.0 h
- AUC0-72, Observation [3, 15]: 471.1 (NC) μg h mL^−1
- C24, Observation [3, 15]: 7.8 (NC) μg mL^−1
- Cmax, Observation [3, 15]: 12.7 (NC) μg mL^−1
- Tmax, Observation [3, 15]: 2.7 (NC) h
- AUC0-72, Observation [3, 16]: 335.2 (259–582) μg h mL^−1
- Cmax, Observation [3, 16]: 10.8 (7.3–12.5) μg mL^−1
- Tmax, Observation [3, 16]: 8.0 (4.0–10.0) h
- C24, Observation ([3]; 400 mg tablet, ref Deng et al., 2013): 5.8 (NC) μg mL^−1
- AUC0-24, Observation [3, 17]: 365.4 µg·h/mL
- Cmax, Observation [3, 17]: 6.5 µg/mL
- Ctrough, Observation [3, 17]: 3300 ng/mL
- Tmax, Observation [3, 17]: 3.0 h
- Cmax, Observation [3, 18]: 36.1 µg/mL
- Ctrough, Observation [3, 18]: 28100 ng/mL
- Tmax, Observation [3, 18]: 3.1 h
- AUC0-72, Observation [3, 19]: 410.3 (NC) μg h mL^−1
- C24, Observation [3, 19]: 7.6 (NC) μg mL^−1
- Cmax, Observation [3, 19]: 12.4 (NC) μg mL^−1
- Tmax, Observation [3, 19]: 3.8 h
- AUC0-24, Observation [3, 20]: 157.6 µg·h/mL
- Cmax, Observation [3, 20]: 11.2 µg/mL
- Ctrough, Observation [3, 20]: 4700 ng/mL
- Tmax, Observation [3, 20]: 3.0 h
- AUC504-528, Observation [3, 21]: 333.7 µg·h/mL
- Cmax, Observation [3, 21]: 18.2 µg/mL
- Ctrough, Observation [3, 21]: 11000 ng/mL
- Tmax, Observation [3, 21]: 6.0 h
- AUC0-24, Observation [3, 22]: 275.1 µg·h/mL
- Cmax, Observation [3, 22]: 19.4 µg/mL
- Ctrough, Observation [3, 22]: 9400 ng/mL
- Tmax, Observation [3, 22]: 3.5 h
- AUC504-528, Observation [3, 23]: 743.3 µg·h/mL
- Cmax, Observation [3, 23]: 45.1 µg/mL
- Ctrough, Observation [3, 23]: 24000 ng/mL
- Tmax, Observation [3, 23]: 2.0 h
- AUC0-24, Observation [3, 24]: 400.0 µg·h/mL
- Cmax, Observation [3, 24]: 36.1 µg/mL
- Ctrough, Observation [3, 24]: 12200 ng/mL
- Tmax, Observation [3, 24]: 2.0 h
- AUC504-528, Observation [3, 25]: 796.1 µg·h/mL
- Cmax, Observation [3, 25]: 53.2 µg/mL
- Ctrough, Observation [3, 25]: 28800 ng/mL
- Tmax, Observation [3, 25]: 4.5 h
- AUC0-24, Observation [3, 26]: 291.6 µg·h/mL
- Cmax, Observation [3, 26]: 20.8 µg/mL
- Ctrough, Observation [3, 26]: 8200 ng/mL
- Tmax, Observation [3, 26]: 3.0 h
- AUC504-528, Observation [3, 27]: 536.2 µg·h/mL
- Cmax, Observation [3, 27]: 32.7 µg/mL
- Ctrough, Observation [3, 27]: 16600 ng/mL
- Tmax, Observation [3, 27]: 2.0 h
- AUC0-24, Observation [3, 28]: 681.2 µg·h/mL
- Cmax, Observation [3, 28]: 44.5 µg/mL
- Ctrough, Observation [3, 28]: 12200 ng/mL
- Tmax, Observation [3, 28]: 4.0 h
- AUC504-528, Observation [3, 29]: 860.3 µg·h/mL
- Cmax, Observation [3, 29]: 52.7 µg/mL
- Ctrough, Observation [3, 29]: 28800 ng/mL
- Tmax, Observation [3, 29]: 3.0 h
- Slope of AUC vs dose, clinically determined value [3, 30]: 0.46
- Km (OCT1): 3.47 µM
- OCT1 Vmax (OCT1): 530 pmol/min/mg protein
- Ki (MATE1): 1700 nM
- Mean oral bioavailability ([4]; oral 800 mg dose in humans, ref Deng et al., 2013): approximately 21.4%
- Elimination via feces, administered radioactivity dose ([4]; ref Deng et al., 2013): approximately 82.2%
- Elimination via feces, unchanged drug ([4]; ref Deng et al., 2013): 67%
- Renal elimination, of the administered dose ([4]; ref Deng et al., 2013): approximately 2.6%
- Higher bioavailability of 400 mg dose than 800 mg dose [4, 30]: 40%
- Inhibitor of CYP3A4 (CYP3A4): weak inhibitor
